Data from PMC9964503, “Effects of Apigenin on Pharmacokinetics of Dasatinib and Probable Interaction Mechanism” (Molecules, 2023).

What was measured:
CYP3A2 = assay: Hepatic and intestinal CYP3A2 protein expression (immunoblot); type: in vivo, rats
Experimental: (§1) The animals were categorized into four groups (n = 6) and fasted for 12 h before the experiment. […] orally administered with normal saline for 7 days and Group II was orally administered DAS (25 mg/kg) on the 7th day. Group III was co-administered DAS with APG for 7 days and DAS (25 mg/kg p.o.) on the 7th day, 2 h after APG 40 mg/kg administration, and Group IV was administered with APG 40 mg/kg for 7 days. The blood was collected from the tail vein at various time points after DAS administration and subjected to centrifugation at 5000× g for 10 min to obtain plasma for DAS quantification using ultra pressure liquid chromatography with mass. At the end of the experiment, all animals were euthanized using carbon dioxide, and liver and intestine tissues were harvested and for Western blotting.
(§2) A PierceTM BCA Protein Assay Kit (Thermo Fisher Scientific) was used to extract the total protein from the hepatic and intestinal tissues by bicinchoninic acid technique. Immunoblots were executed as per the methods of Towbin et al. (1979) with slight modification. Briefly, 10% SDS polyacrylamide gels were used to electrophorese 25 μg of hepatic and intestinal epithelial proteins. These proteins were then transferred to activated PVDF membranes and blocked with 4% skim milk and BSA in TBST. After that, membranes were treated with antibodies for CYP3A2 isozymes, active transporters P-glycoprotein/MDR1, BCRP/ABCG2, and β-actin protein expression for an overnight period (4 °C). The membrane strips were incubated with the suitable secondary antibodies for 2 h after repeated washing steps with 1% TBST and TBS (room temperature). The membrane strips were then washed four times with TBST for five minutes each time. Bands were developed using Luminata™ Western Chemiluminescent HRP Substrates (Millipore), followed by densitometric evaluation of the immunoblots.

BCRP/ABCG2 = assay: Hepatic and intestinal BCRP/ABCG2 protein expression (immunoblot); type: in vivo, rats
Experimental: as §1, §2

Pgp/MDR1 = assay: Hepatic and intestinal Pgp/MDR1 protein expression (immunoblot); type: in vivo, rats
Experimental: as §1, §2

[1] = Pharmacokinetics of oral DAS in rats with or without APG pretreatment (UPLC-MS/MS, non-compartmental); type: in vivo; conditions: DAS in rat plasma, DAS 25 mg/kg p.o., alone or after APG 40 mg/kg p.o. for 7 days, mean ± SD
Experimental: The Central Animal House facility of College of Pharmacy, King Saud University’s, Riyadh, Saudi Arabia, provided 24 healthy adult male Wistar rats (weighing 211–223 g), and the experiment was authorized by the Animal Ethics Committee of the College of Pharmacy, King Saud University (KSU-SE-21-58). All animals were retained in polypropylene cages: 6 animals were caged (n = 6) per cage with a 12-h light/dark cycle, at 25 °C in humane conditions with free access to food and water and adapted to the living conditions one week prior to experiment
as §1
Using UHPLC-MS/MS, DAS concentrations in rat plasma samples were determined. A mixture of DAS and IBR (internal standard) was separated on an Acquity BEH C18 column, and both compounds were eluted at a flow rate of 0.25 mL/min from a mobile phase consisting of acetonitrile, 0.1% formic acid, and 20mM ammonium acetate (95:5). The entire duration of the study was about 2.5 min. The auto-sampler was kept at 10 °C, while the column oven was kept at a constant 40 °C. Electrospray ionization was used to ionize samples in a positive direction. […] Multiple reaction monitoring (MRM) mode detection and quantitation of analyte (DAS) and IS (IBR) employed the precursor to product ion transition of 488.06 and gt; 401.1 and 441.16 and gt; 84.04, respectively. Capillary voltage was 3.4 kV, source temperature was 150 °C, and desolvation temperature was 350 °C for optimum sample ionization using MS/MS. A flow rate of 600 L/h of nitrogen gas was utilized for the desolvation process, whereas a flow rate of 0.18 mL/min of argon gas was used for the collision process. The analyte and IS cone voltages were 46 V and 48 V, and the collision energy was 28 eV and 40 eV, respectively. Precision and accuracy were partially confirmed for the assay using the “US Food and Drug Administration 2018 guideline for bioanalytical technique validation,” and found to be within acceptable ranges of 15% both intra- and inter-day. The samples were acquired using Masslynx 4.1 SCN 805, and then processed using TargetLynks. After making a few modifications to a previously reported study, it was put to use.
A plasma sample of 150 µL was aliquoted into an Eppendorf tube, along with 20 µL of a spiked internal standard (250 ng/mL), and 1 mL of ethyl acetate was also added for the extraction phase. For 10 min at 4 °C and 10,500 rpm, centrifuged samples were shaken for 15 min after being vortexed. Finally, 800 µL of the organic upper layer were transferred to an Eppendorf tube and dried in a sample concentrator at room temperature. Following reconstitution with 150 µL of acetonitrile, the dried residue was transported to UHPLC-MS/MS for 5 µL of analysis.
PK Solver software was employed to calculate the pharmacokinetic parameters using non-compartmental model. The calculated parameters were as follows: half-life (T1/2), elimination rate constant (Kel), time to maximum concentration (Tmax), the maximum concentration (Cmax), area under concentration time curve (AUC), the area under the moment curve (AUMC); the volume of distribution (Vd), the mean residence time (MRT), and clearance (Cl) were examined.

[2] = intestine, APG 40 mg/kg only pretreatment vs normal rats
[3] = liver, APG 40 mg/kg only pretreatment vs normal rats
[4] = intestine, DAS peroral vs normal rats
[5] = liver, DAS peroral vs normal rats

For O=c1cc(-c2ccc(O)cc2)oc2cc(O)cc(O)c12 [APG, 4′,5,7-trihydroxyflavone], the “inhibition of intestinal CYP3A2 protein expression” value (CYP3A2; [2]) was 90.97%, the “inhibition of hepatic CYP3A2 protein expression” value (CYP3A2; [3]) was 87.24% and the “inhibition of intestinal BCRP/ABCG2 protein expression” value (BCRP/ABCG2; [2]) was 91.50%. The “inhibition of hepatic BCRP/ABCG2 protein expression” value (BCRP/ABCG2; [3]) was 91.05%, the “inhibition of intestinal Pgp/MDR1 protein expression” value (Pgp/MDR1; [2]) was 87.84% and the “inhibition of hepatic Pgp/MDR1 protein expression” value (Pgp/MDR1; [3]) was 90.67%.
For Cc1nc(Nc2ncc(C(=O)Nc3c(C)cccc3Cl)s2)cc(N2CCN(CCO)CC2)n1 [DAS, Dasatinib], the “increase of intestinal CYP3A2 protein expression” value (CYP3A2; intestine, DAS administered rats vs normal control rats) was 79.13%, the AUC0-t [1] was 1635.84 ± 45.29 ng·h/mL and the AUMC0-inf_obs [1] was 16200.10 ± 1656.57 ng/mL × h^2. The Cl [1] was 0.012 ± 0.0005 (mg/kg)/(ng/mL)/h, the Cmax [1] was 263.06 ± 12.33 ng/mL and the Vd [1] was 0.087 ± 0.005 (mg/kg)/(ng/mL). It also gave a Tmax ([1]; male, Wistar, po) of 1 h, a half-life ([1]; male, Wistar, po) of 4.97 ± 0.48 h and a k el ([1]; male, Wistar, po) of 3.89e-05 s⁻¹. For the same compound, the AUC(0-inf) ([1]; male, Wistar, po, read-out: AUC0-inf_obs) was 2060 ± 97 ng·h/mL, the MRT inf ([1]; male, Wistar, po, read-out: MRT 0-inf_obs) was 7.84 ± 0.46 h and the “induction of intestinal BCPR/ABCG2 protein expression” value (BCRP/ABCG2; [4]) was 95.66%. The “induction of hepatic BCPR/ABCG2 protein expression” value (BCRP/ABCG2; [5]) was 92.55%, the “induction of intestinal Pgp/MDR1 protein expression” value (Pgp/MDR1; [4]) was 91.65% and the “induction of hepatic Pgp/MDR1 protein expression” value (Pgp/MDR1; [5]) was 93.08%.
